Data as given in patent US8466284B2, “Some 2-pyrazinone derivatives and their use as inhibitors of neutrophile elastase” (Astra Zeneca AB, priority 2007, dated 2013).

Tests used:
[1] = molecular target: T1, Human Neutrophil Elastase (HNE) (Homo sapiens, UniProt P08246); assay: Human Neutrophil Elastase Quenched-FRET Assay; assay type: biochemical; conditions: 1.7 nM HNE, 100 μM MeOSuc-AAPV-AMC, 15 min pre-incubation, 30 min at room temperature; read-out: Inhibition of Human Neutrophil Elastase IC50
T1 construct: Human Neutrophil Elastase (HNE) purified from serum; purchased Calbiochem 324681; host or cells: purified from serum (natural human source, not recombinant)
T1 sequence (P08246 30-247 limits assumed): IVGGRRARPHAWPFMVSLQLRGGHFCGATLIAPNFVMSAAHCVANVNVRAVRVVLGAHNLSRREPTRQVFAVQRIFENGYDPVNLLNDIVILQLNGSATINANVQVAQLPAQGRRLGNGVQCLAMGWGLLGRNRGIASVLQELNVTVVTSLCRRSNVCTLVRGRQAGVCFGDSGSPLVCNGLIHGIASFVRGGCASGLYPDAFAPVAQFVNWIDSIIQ
Method: Human Neutrophil Elastase Quenched-FRET Assay
The assay uses Human Neutrophil Elastase (HNE) purified from serum (Calbiochem art. 324681; Ref. Baugh, R. J. et al., 1976, Biochemistry. 15, 836-841). HNE was stored in 50 mM sodium acetate (NaOAc), 200 mM sodium chloride (NaCl), pH 5.5 with added 30% glycerol at −20° C. The protease substrate used was Elastase Substrate V Fluorogenic, MeOSuc-AAPV-AMC (Calbiochem art. 324740; Ref. Castillo, M. J. et al., 1979, Anal. Biochem. 99, 53-64). The substrate was stored in dimethyl sulphoxide (DMSO) at −20° C. The assay additions were as follows: Test compounds and controls were added to black 96-well flat-bottom plates (Greiner 655076), 1 μL in 100% DMSO, followed by 30 μL HNE in assay buffer with 0.01% Triton (trade mark) X-100 detergent. The assay buffer constitution was: 100 mM Tris(hydroxymethyl)aminomethane (TRIS) (pH 7.5) and 500 mM NaCl. The enzyme and the compounds were incubated at room temperature for 15 minutes. Then 30 μl substrate in assay buffer was added. The assay was incubated for 30 minutes at room temperature. The concentrations of HNE enzyme and substrate during the incubation were 1.7 nM and 100 μM, respectively. The assay was then stopped by adding […] stop solution (140 mM acetic acid, 200 mM sodium monochloroacetate, 60 mM sodium acetate, pH 4.3). Fluorescence was measured on a Wallac 1420 Victor 2 instrument at settings: Excitation 380 nm, Emission 460 nm. IC50 values were determined using Xlfit curve fitting using model 205.

[2] = Thermal behaviour of the solid (DSC / TGA); assay type: physicochemical; conditions: solid state
Method: Using standard methods, for example those described in Höhne, G. W. H. et al (1996), Differential Scanning Calorimetry, Springer, Berlin, the calorimetric response of a test sample to increasing temperature was investigated using a TA Instruments Q2000 Modulated Temperature Differential Scanning Calorimeter (MTDSC). Measurements were performed between 15 and 300° C. using a modulation of ±0.50° C. in intervals of 40 seconds and a ramp rate of 5° C. per minute. Approximately 1 to 5 mg of test sample was placed in aluminium cups with lids (no crimping) under a nitrogen atmosphere.
Gravimetric Analysis (TGA)
The gravimetric response of test samples to increasing temperatures was investigated using a Q500 Thermal Gravimetric Analyser (TGA) (TA Instruments). The samples were heated in a flow of nitrogen gas with a heating rate of 10° C./min.
Approximately 1 to 3 mg of the test sample was placed in the cup and heated to approximately 300° C.

[3] = Humidity interaction (Gravimetrical Vapour Sorption); assay type: physicochemical; conditions: 0 to 80% relative humidity (RH) at 25° C.
Method: is The gravimetric responses of test samples to changes in humidity were investigated using a TGA 5000 (TA Instruments) Gravimetrical Vapour Sorption (GVS). The relative humidity (RH) was raised in steps of 5% to 90% RH and lowered back to 0% RH in two cycles. Each level of RH was held until the equilibrium condition (sample weight change<0.01 wt % per 10 minutes) was reached. Measurements were normally made at 25° C. Approximately 5 mg of the test sample was placed in the cup and evaluated. The hygroscopicity was calculated as the relative change in weight of the sample between the two conditions 0% RH and 80% RH during the second cycle.

Row | Compound | IC50 [1] [nM] | thermally stable below (no solvent loss nor other thermal event prior to melting) [2] | water uptake (hygroscopicity) [3] [wt %]
1 | Cc1c(-c2ccnn2-c2ccc(C#N)cc2)nc(C(N)=O)c(=O)n1-c1cccc(C(F)(F)F)c1 [Example 1 or 1a, 6-[1-(4-Cyanophenyl)-1H-pyrazol-5-yl]-5-methyl-3-oxo-4-[3-(trifluoromethyl)phenyl]-3,4-dihydropyrazine-2-carboxamide] | 2.2 |  | 
2 | Cc1c(-c2ccnn2-c2ccc(C#N)cc2)nc(C(N)=O)c(=O)n1-c1cccc(C(F)(F)F)c1 [Example 1a, 6-[1-(4-Cyanophenyl)-1H-pyrazol-5-yl]-5-methyl-3-oxo-4-[3-(trifluoromethyl)phenyl]-3,4-dihydropyrazine-2-carboxamide Form A] |  | below 260 °C | < 0.2
3 | Cc1c(-c2ccnn2-c2ccc(Cl)cc2)nc(C(N)=O)c(=O)n1-c1cccc(C(F)(F)F)c1 [Example 2, 6-[1-(4-Chlorophenyl)-1H-pyrazol-5-yl]-5-methyl-3-oxo-4-[3-(trifluoromethyl)phenyl]-3,4-dihydropyrazine-2-carboxamide] | 11 |  | 
4 | Cc1c(-c2ccnn2-c2ccc(Cl)cn2)nc(C(N)=O)c(=O)n1-c1cccc(C(F)(F)F)c1 [Example 3, 6-[1-(5-Chloropyridin-2-yl)-1H-pyrazol-5-yl]-5-methyl-3-oxo-4-[3-(trifluoromethyl)phenyl]-3,4-dihydropyrazine-2-carboxamide] | 28 |  | 
5 | Cc1cc(-c2nc(C(N)=O)c(=O)n(-c3cccc(C(F)(F)F)c3)c2C)n(-c2ccc(C#N)cc2)n1 [Example 4, 6-[1-(4-Cyanophenyl)-3-methyl-1H-pyrazol-5-yl]-5-methyl-3-oxo-4-[3-(trifluoromethyl)phenyl]-3,4-dihydropyrazine-2-carboxamide] | 3.5 |  | 
6 | Cc1c(-c2ccnn2-c2ccc(C#N)cc2)nc(C(=O)NC2CC2)c(=O)n1-c1cccc(C#N)c1 [Example 5, 4-(3-Cyanophenyl)-6-[1-(4-cyanophenyl)-1H-pyrazol-5-yl]-N-cyclopropyl-5-methyl-3-oxo-3,4-dihydropyrazine-2-carboxamide] | 4.2 |  | 
7 | Cc1c(C2=NC(C)(C)CN2c2ccc(C#N)cc2)nc(C(N)=O)c(=O)n1-c1cccc(C(F)(F)F)c1 [Example 6, 6-(1-(4-Cyanophenyl)-4,4-dimethyl-4,5-dihydro-1H-imidazol-2-yl)-5-methyl-3-oxo-4-(3-(trifluoromethyl)phenyl)-3,4-dihydropyrazine-2-carb oxamide] | 1.4 |  | 
